Where a name gives a salt, the structure may show the parent alone.

The conditions of the series: human.
As to `CN1CCC(=C2c3ccccc3CCn3c(C=O)cnc32)CC1` [alcaftadine], the ROR is 12.53.
Turning to `Cc1nnc2n1-c1ccc(Cl)cc1C(c1ccccc1)=NC2` [alprazolam], the “Adverse Event Seriousness” value is given as 13.30, the Outcome is 21.02, the ROR was 6.40 and the RxScore was determined as 72.84.
Compound `CC[C@H]1OC(=O)[C@H](C)[C@@H](O[C@H]2C[C@@](C)(OC)[C@@H](O)[C@H](C)O2)[C@H](C)[C@@H](O[C@@H]2O[C@H](C)C[C@H](N(C)C)[C@H]2O)[C@](C)(O)C[C@@H](C)CN(C)[C@H](C)[C@@H](O)[C@]1(C)O` [azithromycin] registered an ROR of 13.60.
Regarding `C[C@H]1[C@H](NC(=O)/C(=N\OC(C)(C)C(=O)O)c2csc(N)n2)C(=O)N1S(=O)(=O)O` [aztreonam], the “Adverse Event Seriousness” value was determined as 14.58, the Outcome came out at 22.41, the ROR is 5.83 and the RxScore came out at 75.34.
For `CC(C)C[C@H](NC(=O)[C@H](CCc1ccccc1)NC(=O)CN1CCOCC1)C(=O)N[C@@H](Cc1ccccc1)C(=O)N[C@@H](CC(C)C)C(=O)[C@@]1(C)CO1` [carfilzomib], the Outcome amounted to 22.81.
Consider `CCCC(C)(COC(N)=O)COC(=O)NC(C)C` (stereo not shown) [carisoprodol], for which the “Adverse Event Seriousness” value amounted to 17.03, the Outcome turned out to be 26.05, the ROR was found to be 9.07 and the RxScore is 83.70.
In the case of `Nc1nc(Cl)nc2c1ncn2[C@@H]1O[C@H](CO)[C@@H](O)[C@@H]1F` [clofarabine], the Outcome is recorded as 23.27.
For the compound `O=C1CN=C(c2ccccc2Cl)c2cc([N+](=O)[O-])ccc2N1` [clonazepam], the “Adverse Event Seriousness” value worked out at 11.38, the Outcome came out at 15.34, the ROR turned out to be 3.43 and the RxScore worked out at 51.36.
Regarding `CN1CCN(C2=Nc3cc(Cl)ccc3Nc3ccccc32)CC1` [clozapine], the “Adverse Event Seriousness” value came to 16.28 and the Outcome was 23.55.
In the case of `CN(C)CCC=C1c2ccccc2C=Cc2ccccc21` [cyclobenzaprine hydrochloride], the “Adverse Event Seriousness” value is recorded as 12.25, the Outcome worked out at 22.45, the ROR is recorded as 6.09 and the RxScore is listed as 72.46.
Turning to `CCCCC[C@H](O)/C=C/[C@H]1[C@H](O)CC(=O)[C@@H]1C/C=C\CCCC(=O)O` [dinoprostone], the “Adverse Event Seriousness” value is listed as 15.66, the Outcome is 19.09, the ROR amounted to 10.62 and the RxScore is 74.95.
Take `CCCC(CCC)C(=O)O` [divalproex sodium]: the “Adverse Event Seriousness” value is given as 8.51, the Outcome was found to be 11.14, the ROR was determined as 3.85 and the RxScore came to 41.09.
For the compound `CNC[C@H](O)c1ccc(O)c(O)c1` [epinephrine injection, epinephrine], the “Adverse Event Seriousness” value came out at 4.69, the Outcome stood at 21.03, the ROR is 16.91 and the RxScore is 73.02.
Regarding `C#Cc1cccc(Nc2ncnc3cc(OCCOC)c(OCCOC)cc23)c1` [erlotinib hydrochloride], the “Adverse Event Seriousness” value is on record as 18.95.
Consider `C[C@]12CC[C@@H]3c4ccc(O)cc4CC[C@H]3[C@@H]1CC[C@@H]2O` [estradiol], for which the “Adverse Event Seriousness” value came out at 20.16 and the ROR is on record as 13.26.
Take `CCC1(C)CC(=O)NC1=O` (stereo not shown) [ethosuximide]: the “Adverse Event Seriousness” value is 7.71, the Outcome is given as 10.64, the ROR was found to be 2.92 and the RxScore is 41.01.
For the compound `NC(=O)OCC(COC(N)=O)c1ccccc1` [felbamate], the “Adverse Event Seriousness” value was found to be 7.72, the Outcome was 14.26, the ROR stood at 2.81 and the RxScore amounted to 43.92.

Values taken from patent publication US20140358576A1, “SYSTEM AND METHOD FOR SURVEILLANCE AND EVALUATION OF SAFETY RISKS ASSOCIATED WITH MEDICAL INTERVENTIONS” (Adverse Events, Inc., priority 2013, published 2014).
